The values below come from a melting point compilation (Tetko et al.; mined from patent text by program, amines drawn as free bases though some values may be those of a salt).

What is called melting point is the temperature of the solid-liquid transition. On to `O=C=Nc1ccc(Oc2cc(Cl)ncn2)cc1`, for which the melting point is 103 °C.

With `CCCCCc1nc(O)c(-c2ccccc2)s1`, the melting point was in the range of 128 to 130 °C.

Turning to `COc1ccc(C(=O)Nc2ccccc2)cc1NS(=O)(=O)c1cccc2ccccc12`, the melting point was in the range of 212 to 213 °C.

With `Cc1nc2c(c3c1[nH]c1ccc(F)cc13)C(=O)CC(C(C)C)C2` (stereo not given), the melting point was 221 to 223 °C.

On to `COc1ccnc(C(C)Sc2nc3cc(OC(F)(F)C(F)F)ccc3[nH]2)c1` (stereo not given), for which the melting point lay within 78 to 81 °C.

In turn, `[N-]=[N+]=N[C@@H](C(=O)O)C(c1ccccc1)c1ccccc1` displayed a melting point of 108 to 110 °C.

In turn, `O=c1[nH]cc(-c2cnccn2)cc1Br` had a melting point of over 250 °C.

In turn, `COc1cccc(N(C)CCNC(C)=O)c1` showed a melting point of 69 to 71 °C.

For the compound `C=CCc1c(OC(C)=O)c2cccnc2n(-c2ccccc2)c1=O`, the melting point is 189 to 195 °C.

In turn, `CC(C)(C)OC(=O)NC(C)(C)c1ccc(-c2ccc3nn(C4CCCCO4)cc3c2-c2cc[nH]n2)cc1` (stereo not given) gave a melting point of 99 to 105 °C.

`CC(C)(N)CNS(=O)(=O)c1ccccc1` had a melting point of 152 to 153 °C.

The compound `COC(=O)C1=C(C)NC(C)=C(C(=O)OCCN2CCN(C(c3ccc(F)cc3)c3ccc(F)cc3)CC2)C1c1cccc([N+](=O)[O-])c1` (stereo not given) registered a melting point of 68 to 72 °C.

`CON1C=Cc2ccccc2C1` returned a melting point of 113 to 114 °C.

`CCOC(=O)c1ccc(C2=CCCc3ccccc32)cc1` yielded a melting point of 81 °C.

Regarding `O=c1[nH]c2cc([N+](=O)[O-])cnc2n1-c1ccccc1F`, the melting point is 234 to 236 °C.

Turning to `O=c1nc(-c2cccc(S(=O)(=O)CCCc3ccccc3)n2)sc2ccccc12`, the melting point was in the range of 150 to 151 °C.

In turn, `C=CCC1COC(CC)(CC(=O)O)c2[nH]c3c(CC)cccc3c21` (stereo not given) registered a melting point of 96 to 97 °C.

As to `O=C(COC(F)(F)F)Nc1ccccc1`, the melting point is 64 to 66.5 °C.

As to `CS(=O)(=O)c1ccc(SC2SCC(O)C(O)C2O)cc1` (stereo not given), the melting point lay within 169 to 172 °C.

Compound `N#CCN(CP(=O)(Oc1ccccc1)Oc1ccccc1)N=O` showed a melting point of 76 to 78 °C.

Consider `CNC(=S)n1nc(NC(C)=O)nc1N`, for which the melting point was over 300 °C.

Compound `O=S(=O)(c1cccs1)N1CCc2[nH]c3c(cnc4cc(Cl)ccc43)c2C1` came in with a melting point of over 250 °C.

Take `COC(=O)CC/C(C)=C/Cc1c(NC(=O)C(F)(F)F)c2c(c(C)c1OC)COC2=O`: the melting point fell in the range of 107 to 109 °C.

`COc1nc(C)c(C(C)O)cc1NC(=O)N1CCN(c2cccc(C)c2C)CC1` (stereo not given) had a melting point of 100 to 102 °C.

Consider `COc1ccc(CN(C)CCCSc2ccc(NC(=O)c3cccc4c(=O)c5ccccc5sc34)cc2)cc1OC`, for which the melting point amounted to 148 °C.

Turning to `Nc1cccc2c1OC1(CC1)C2=O`, the melting point amounted to 136 °C.

`O=C1NC(=O)c2c1cc1ccc3c(c1c2C1CCCCC1)OCO3`: the melting point lay in the range of 305 to 308 °C.

Compound `COC(C)(C(=S)N(C)C)c1ccccn1` (stereo not given) gave a melting point of 67.8 to 70 °C.

On to `CCCC(=O)N(Cc1ccc(-c2ccccc2C#N)cc1)c1nn(C)cc1C(=O)OCC`, for which the melting point lay within 118 to 119 °C.

On to `Clc1nc2ccccc2c2occc12`, for which the melting point is 120 to 122 °C.

On to `Cc1ccc(Cn2ncnc2C(C)NS(=O)(=O)c2ccc(Cl)s2)cc1` (stereo not given), for which the melting point lay within 116 to 117 °C.

In turn, `COc1ccccc1N1CCC(CNCC2COc3cccc(O)c3O2)CC1` (stereo not given) registered a melting point of 116 to 119 °C.

In the case of `CC(=O)NCC(NC(C)=O)c1ccccc1` (stereo not given), the melting point lay in the range of 155 to 156 °C.

For `Nc1nc2ccccc2c2c1ncn2C1CC(O)C(CO)O1` (stereo not given), the melting point lay in the range of 232 to 237 °C.

Take `CCCCCC(=O)NC1(OCC)CC1`: the melting point lay in the range of 47 to 48.5 °C.

In the case of `N#Cc1ccccc1OCCCCCC(=O)O`, the melting point lay in the range of 77 to 80 °C.

The compound `Cc1n[nH]c([N+](=O)[O-])c1-c1ncc([N+](=O)[O-])n1C` registered a melting point of 184 °C.

With `OC1CSC(Oc2cncc(Cl)c2)C(O)C1O` (stereo not given), the melting point turned out to be 184 °C.

Take `O=C(O)c1ccc2c(c1-c1c(C(=O)O)ccc3c1OCO3)OCO2`: the melting point fell in the range of 253 to 255 °C.

Take `O=C(CBr)c1cc(OCc2ccccc2)no1`: the melting point lay in the range of 80 to 81 °C.

The compound `O=C(NCC1Cc2cc(Cl)cc(-c3ccsc3)c2O1)OCc1ccccc1` (stereo not given) gave a melting point of 90 to 92 °C.

In turn, `Oc1cc(O)c2cc(-c3cc(F)cc(F)c3)oc2c1` gave a melting point of 208 to 209 °C.

For the compound `Cc1c(CN2CCN(c3cccc(C(F)(F)F)c3)CC2)cc(-c2ccc(Cl)cc2)n1-c1ccc(Cl)cc1`, the melting point is 165 to 167 °C.

`COC(=O)c1c(Cl)cc(Cl)cc1NC(=O)CSc1ccccc1C(=O)O` came in with a melting point of 165 to 166 °C.

For `C=CC(=O)OCCCCCCOc1ccc(C=O)cc1`, the melting point worked out at 30 °C.

`Cc1ccc(S(=O)(=O)OCC(COC(=O)c2ccccc2)OS(=O)(=O)c2ccc(C)cc2)cc1` (single isomer, unassigned; (-)) registered a melting point of 105 to 106 °C.

The compound `CCCCOc1ccc(S(C)(=O)=O)cc1-c1nc2c(CC)nn(Cc3ccccn3)c2c(=O)[nH]1` showed a melting point of 189 to 191 °C.

With `Cc1ccc(-c2nc(COc3ccc(CCCCn4ccnc4)cc3)co2)s1`, the melting point was in the range of 82 to 83 °C.

Turning to `Cn1c(CNC(=O)c2ccc3ccccc3c2)nc(-c2ccncn2)cc1=O`, the melting point fell in the range of 250 to 252 °C.

Turning to `C=CCOC(=O)c1c(Oc2nc(OC)cc(OC)n2)ccc2[nH]c(C)c(N)c12`, the melting point is 132 to 135 °C.

On to `Cc1ccc(NS(=O)(=O)c2cc(S(=O)(=O)Nc3ccc(C)cc3C)c3cc(O)ccc3c2)c(C)c1`, for which the melting point fell in the range of 116 to 118 °C.

For the compound `CN(C)C=Nc1c(C#N)c(=O)n(C)c(=O)n1C`, the melting point lay in the range of 174 to 175 °C.

In turn, `COc1cccc(-c2cc3cnc(N)nc3nc2NC(=O)NC(C)(C)C)c1` had a melting point of 275 to 280 °C.

Regarding `CCCCCCCCCCCCCCCCCCCCCCCCNc1ccc(C(=O)C(F)(F)F)cc1`, the melting point is 89 to 90 °C.

Turning to `CCCCN(C(=O)CCCCC(=O)N(CCCC)C1CC(C)(C)NC(C)(C)C1)C1CC(C)(C)NC(C)(C)C1`, the melting point was 134 to 144 °C.

The compound `COc1ccc2c3c(c(=O)oc2c1)CNCC3` had a melting point of 171 to 180 °C.

Regarding `Nc1nc(OC2CCCC2)c2ncn(C3C=CC(CO)C3)c2n1` (stereo not given), the melting point fell in the range of 188 to 190 °C.

In turn, `CC(C)(O)c1cnn2c(-c3ccc(F)c(-c4ccncc4)c3)cnc2n1` came in with a melting point of 233 to 237 °C.

Consider `COc1cc(Nc2c(C#N)cnc3cc(F)ccc23)c(Cl)cc1Cl`, for which the melting point was 199 to 201 °C.

As to `CC(=O)OCNC(=O)c1cc(C)c(C(c2cc(F)ccc2F)S(=O)(=O)c2ccc(F)cc2)cn1` (stereo not given), the melting point lay within 111 to 113 °C.

In turn, `C[C@H](Nc1nc(NC=O)nc([C@@H](C)F)n1)C1CCCCC1` displayed a melting point of 127 °C.

With `COc1cc2c(cc1O)C(C)(C)CC2`, the melting point is 43.5 to 44.5 °C.

Consider `CCOC(=O)CCCCn1c(=O)[nH]c2ccc(O)cc2c1=O`, for which the melting point lay in the range of 105 to 107 °C.

In turn, `COc1ccc(CN2C(=O)CNS2(=O)=O)cc1` showed a melting point of 111 to 113 °C.

`Cc1nc(=O)[nH]c2ccc(Cl)cc12`: the melting point was over 270 °C.

For the compound `CC(=NO)C(C)(C)NOCCNC(C)(C)C(CCN1C(=O)c2ccccc2C1=O)=NO`, the melting point lay in the range of 74 to 75 °C.

For the compound `CCCC/C=C\CCCCCCCCCC1=CC(=O)C=C(OC)C1=O`, the melting point was in the range of 39.5 to 41.5 °C.

Take `COc1ccc(N(Cc2cnn(Cc3ccc(C(F)(F)F)cc3)c2)C(=O)C2CCCc3c(O)cccc32)cn1` (stereo not given): the melting point lay in the range of 199 to 200 °C.

`COC(=O)N/C(=C\C[PH](=O)CO)C(=O)O` (stereo not given) showed a melting point of 254 to 256 °C.

`CCCc1nc2c(C)cnc(C(=O)O)c2n1Cc1ccc(-c2ccccc2-c2nnn[nH]2)cc1`: the melting point lay in the range of 161 to 163 °C.

`CC(C)Cc1nn(C)c(=O)c2cn(Cc3ccncc3)cc12` showed a melting point of 91 to 93 °C.

`O=C1SCCN1Cc1ccc(Cl)cc1` had a melting point of 68 to 69 °C.

For `OC(Cc1ccc(Cl)cc1)(Cn1ccnc1)c1ccc(-c2ccccc2)cc1` (stereo not given), the melting point is 182 °C.

`Oc1ccccc1CNCCCCCCCCCCCCNCc1ccccc1O`: the melting point lay within 72 to 73 °C.

With `CC(=O)C(O)C1OC(n2cc(C#N)c(=O)[nH]c2=O)CC1C(C)=O` (stereo not given), the melting point lay in the range of 160 to 162 °C.

For `Cc1ccc(-c2cn(C)cc(-c3ccc(Cl)c(Cl)c3)c2=O)cc1C`, the melting point fell in the range of 150 to 152 °C.

`COc1cc(-c2ccc(N(C)CCN(C)c3ccc(-c4cc(OC)c(N5CCCC5)c(OC)c4)nc3)cn2)cc(OC)c1N1CCCC1` came in with a melting point of 221 to 225 °C.

`CCN1c2ccccc2CC(C#N)c2ccccc21` (stereo not given) yielded a melting point of 127 to 129 °C.

On to `O=Cc1coc(C(O)c2ccc(Br)cc2)c1` (stereo not given), for which the melting point lay in the range of 83 to 84 °C.

For the compound `Cc1c(C(=O)Nc2ccc(OCC(C)(C)C)c(C#N)c2)cnn1C1CCCCC1`, the melting point fell in the range of 126 to 128 °C.

The compound `N#Cc1c(SC(F)(F)F)c(NC(=O)C(F)(F)F)n(-c2c(Cl)cc(C(F)(F)F)cc2Cl)c1Cl` yielded a melting point of 190 °C.

`CCOP(=O)(Cn1c(=O)c(=O)[nH]c2cc([N+](=O)[O-])ccc21)OCC` had a melting point of 197 °C.

`CCCC(CC(=O)Nc1ccccc1)(OC)OC` yielded a melting point of 88 °C.

In turn, `COc1cc(C2C3=C(COC3=O)Nc3ccc4nc(C)sc4c32)ccc1O` (stereo not given) displayed a melting point of 293 to 295 °C.

As to `N#Cc1nn(-c2c(Cl)cc(C(F)(F)F)cc2Cl)cc1C1CC1(Cl)Cl` (stereo not given), the melting point fell in the range of 123 to 126 °C.

`CCOC(=O)c1csc(NC(=O)c2ccccc2)n1`: the melting point lay within 146 to 147 °C.

`O=C(Nc1ccccc1)ONC1=Nc2ccc(Cl)cc2C(c2ccccc2)=NC1` yielded a melting point of 215 to 217 °C.

`CCn1cc(CCC(=O)O)c2ccccc21`: the melting point amounted to 50 °C.

Take `CCCCCCCCCCCCCCCCOCC(CO)COC(C)=O` (stereo not given): the melting point was found to be 33 °C.

In turn, `NC(=O)c1ccc2ccccc2c1-c1c(P(=O)(c2ccccc2)c2ccccc2)ccc2ccccc12` yielded a melting point of 122 °C.
